# Measurements: PubChem BioAssay (NCI)
# Several values for one entry are separate records, joined by “and”; a condition that tells them apart may be missing. Equal values may be shown once.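 Exposure lasted 48 hours, with cells grown in 96-well plates and compounds tested at five concentrations. Here, GI50 denotes the concentration required for 50% inhibition of growth. The concentration for full growth arrest is given as TGI.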
# Legend:
# Assay in all cases: inhibition of tumour cell growth, NCI panel, 48 h
# 786-0 renal = system: 786-0 renal
# ACHN renal = system: ACHN renal
# HOP-92 NSCLC = system: HOP-92 NSCLC
# K-562 leukemia = system: K-562 leukemia
# LOX IMVI melanoma = system: LOX IMVI melanoma
# MALME-3M melanoma = system: MALME-3M melanoma
# NCI-H23 lung = system: NCI-H23 lung
# OVCAR-5 ovarian = system: OVCAR-5 ovarian
# RXF 393 renal = system: RXF 393 renal
# SF-295 CNS = system: SF-295 CNS
Compound,GI50 (786-0 renal),TGI (786-0 renal),GI50 (ACHN renal),TGI (ACHN renal),GI50 (HOP-92 NSCLC),TGI (HOP-92 NSCLC),GI50 (K-562 leukemia),TGI (K-562 leukemia),GI50 (LOX IMVI melanoma),TGI (LOX IMVI melanoma),GI50 (MALME-3M melanoma),TGI (MALME-3M melanoma),GI50 (NCI-H23 lung),TGI (NCI-H23 lung),GI50 (OVCAR-5 ovarian),TGI (OVCAR-5 ovarian),GI50 (RXF 393 renal),TGI (RXF 393 renal),GI50 (SF-295 CNS),TGI (SF-295 CNS)
CC(C)(C)c1ccc(NC(=O)c2cc(=O)c3ccccc3[nH]2)c(C(C)(C)C)c1O,3.05 µM,12.1 µM,4.13 µM,12.8 µM,2.88 µM,12.8 µM,4.37 µM,16.7 µM,3.22 µM,13.1 µM,12.1 µM,26.3 µM,3.33 µM,14.1 µM,6.26 µM,18.7 µM,2.31 µM,5.16 µM,6.25 µM,20.2 µM
CCCCCCCCCCSS(=O)(=O)c1ccc(C)cc1,,17.8 µM,,31 µM,,27.2 µM,,46.8 µM,,15.7 µM,,31.3 µM,,35.4 µM,,30.6 µM,,32.4 µM,,18.1 µM
O=C(O/N=C1/CCC/C1=C\c1ccccc1)c1ccc(Cl)cc1,,> 100 µM,,> 100 µM,,> 100 µM,,> 100 µM,,> 100 µM,,> 100 µM,,> 95.3 µM,,> 100 µM,,> 31.6 µM,,> 100 µM
CCOc1ccc2c(-c3ccnc(Nc4cccc(C(F)(F)F)c4)n3)cnn2n1,7.3 µM,> 19.6 µM,16.3 µM,> 25 µM,5.05 µM,24 µM,15.9 µM,> 25 µM,12.3 µM,> 25 µM,> 25 µM,> 25 µM,6.97 µM,> 20 µM,> 15.9 µM,> 25 µM,14.2 µM,> 25 µM,> 25 µM,> 25 µM
Cc1cc(Cl)ccc1OCC(=O)Oc1c(Cl)c(Cl)c(Cl)c(Cl)c1Cl,,85.5 µM,,> 100 µM,,40 µM,,> 100 µM,,51.6 µM,,45.3 µM,,95.5 µM,,59.2 µM,,37.3 µM,,67.9 µM
CCCCCCCCCCCCCCCC[N+](C)(C)C,0.966 µM,2.43 µM,0.332 µM and 1.44 µM,1.61 µM and 4.03 µM,0.0918 µM,0.353 µM,0.163 µM and 1.17 µM,1.1 µM and 2.83 µM,,0.332 µM and 3.07 µM,1.8 µM,5.08 µM,0.292 µM and 1.46 µM,1.51 µM and 3.8 µM,0.196 µM and 1.23 µM,0.61 µM and 4.06 µM,0.0963 µM and 0.235 µM,0.244 µM and 0.83 µM,0.305 µM and 0.716 µM,1.36 µM and 2.38 µM
CN(C)c1ccc2c(SCC(=O)OCC(=O)[C@@]3(O)CC[C@H]4[C@@H]5CCC6=CC(=O)C=C[C@]6(C)[C@H]5C(=O)C[C@@]43C)c3ccc(N(C)C)cc3nc2c1,,> 47.4 µM,,20 µM,,> 64.6 µM,,> 70.4 µM,,> 100 µM,,> 100 µM,,64.9 µM,,> 100 µM,,> 57 µM,,> 100 µM
O=c1cc(-c2ccccc2)oc2cc(OCc3cn(Cc4ccc(F)cc4)nn3)cc(O)c12,9.26 µM,42.1 µM,6.23 µM,> 100 µM,4.43 µM,45.5 µM,> 100 µM,> 100 µM,> 100 µM,> 100 µM,5.06 µM,> 100 µM,7.7 µM,> 100 µM,> 100 µM,> 100 µM,3.58 µM,30.1 µM,10.2 µM,46.8 µM
CCCCCn1ncc(-c2c(O)c(O)cc3c(O)c(-c4c(C)cc5c(-c6cnn(CCCCC)n6)c(O)c(O)cc5c4O)c(C)cc23)n1,0.171 µM,2.61 µM,0.128 µM,4.27 µM,0.0723 µM,0.242 µM,0.0837 µM,8.44 µM,0.0908 µM,1.16 µM,0.138 µM,4.73 µM,0.078 µM,3.66 µM,0.222 µM,6.57 µM,0.112 µM,6.45 µM,0.108 µM,4.6 µM
C=CC1(C)/C(=N\O)C(C)(CC)C(=O)N1O (configuration not stated),,> 100 µM,,> 100 µM,,> 100 µM,,> 100 µM,,> 100 µM,,> 100 µM,,> 100 µM,,> 100 µM,,> 100 µM,,> 100 µM
C=C(C)[C@@H]1CC[C@]2(c3ncc(C)o3)CC[C@]3(C)[C@H](CC[C@@H]4[C@@](C)(CCC#N)[C@H](C(=C)C)CC[C@]43C)[C@@H]12,8.23 µM,23.4 µM,4.65 µM,17.2 µM,1.56 µM,3.39 µM,2.99 µM,> 100 µM,1.95 µM,4.14 µM,2.65 µM,9.75 µM,6.54 µM,21.4 µM,8.73 µM,21.1 µM,2.14 µM,5.12 µM,7.22 µM,21.2 µM
COc1ncnc2c1ncn2C/C(Br)=C(\Br)CCl,3.38 µM,11.5 µM,2.14 µM,4.92 µM,4.08 µM,16.4 µM,3.29 µM,10.9 µM,2.79 µM,9.61 µM,1.49 µM,3.21 µM,3.16 µM,11.4 µM,3.83 µM,15.2 µM,1.64 µM,3.06 µM,10.6 µM,23.3 µM
CN1CCN(c2ccc(NC3=C(Cl)C(=O)c4ncccc4C3=O)cc2C(F)(F)F)CC1,1.84 µM,3.32 µM,1.48 µM,2.8 µM,1.58 µM,3.03 µM,0.435 µM,> 100 µM,1.53 µM,2.94 µM,1.46 µM,2.83 µM,1.87 µM,3.87 µM,2.2 µM,5.14 µM,1.52 µM,2.91 µM,16.6 µM,30.4 µM
CC(=O)[CH-]C(=O)c1ccccc1.CC(=O)[CH-]C(=O)c1ccccc1.[O-]c1ccc(O)cc1.[O-]c1ccc(O)cc1.[Ti+4],13.2 µM,26 µM,14.7 µM,28.1 µM,14.1 µM,28.9 µM,15.4 µM,76 µM,14.3 µM,27.3 µM,18.1 µM,33.5 µM,,,35.1 µM,91.4 µM,6.64 µM,20.5 µM,16.5 µM,34.3 µM
